Laboratory results from patent publication US20260217767A1, “NOVEL A4B7 THIOETHER PEPTIDE DIMER ANTAGONISTS” (Protagonist Therapeutics, Inc., priority 2014, published 2026).
pIC50: −log10 of the molar value. Where a SMILES comes first, the peptide text is derived from it.

Key:
[1] = Simulated Intestinal Fluid (SIF) Stability Assay; type: in vitro ADME; settings: pig, 37° C., monomers, Table 6; for half-life at 22 μM: simulated intestinal fluid (SIF) with 1% porcine pancreatin, pH 6.5, porcine pancreatin; for half-life: porcine pancreatin
How it was run: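 Peptide at 22 μM final was incubated at 37° C in blank FaSSIF pH 6.5 with 1% porcine pancreatin. Timed samples were quenched in acetonitrile/methanol/formic acid with internal standard and analysed by LC-MS/MS. Half-lives came from first-order exponential fits of percent remaining.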

[2] = target: T1, rh integrin α4β7 (Homo sapiens, UniProt P13612+P26010); test: α4β7-MAdCAM Competition ELISA; type: binding; settings: thioether monomer peptides, Table 6; read-out: ELISA A4B7
T1 construct: purchased R&D Systems 5397-A30
T1 sequence (P13612 34-977 limits assumed): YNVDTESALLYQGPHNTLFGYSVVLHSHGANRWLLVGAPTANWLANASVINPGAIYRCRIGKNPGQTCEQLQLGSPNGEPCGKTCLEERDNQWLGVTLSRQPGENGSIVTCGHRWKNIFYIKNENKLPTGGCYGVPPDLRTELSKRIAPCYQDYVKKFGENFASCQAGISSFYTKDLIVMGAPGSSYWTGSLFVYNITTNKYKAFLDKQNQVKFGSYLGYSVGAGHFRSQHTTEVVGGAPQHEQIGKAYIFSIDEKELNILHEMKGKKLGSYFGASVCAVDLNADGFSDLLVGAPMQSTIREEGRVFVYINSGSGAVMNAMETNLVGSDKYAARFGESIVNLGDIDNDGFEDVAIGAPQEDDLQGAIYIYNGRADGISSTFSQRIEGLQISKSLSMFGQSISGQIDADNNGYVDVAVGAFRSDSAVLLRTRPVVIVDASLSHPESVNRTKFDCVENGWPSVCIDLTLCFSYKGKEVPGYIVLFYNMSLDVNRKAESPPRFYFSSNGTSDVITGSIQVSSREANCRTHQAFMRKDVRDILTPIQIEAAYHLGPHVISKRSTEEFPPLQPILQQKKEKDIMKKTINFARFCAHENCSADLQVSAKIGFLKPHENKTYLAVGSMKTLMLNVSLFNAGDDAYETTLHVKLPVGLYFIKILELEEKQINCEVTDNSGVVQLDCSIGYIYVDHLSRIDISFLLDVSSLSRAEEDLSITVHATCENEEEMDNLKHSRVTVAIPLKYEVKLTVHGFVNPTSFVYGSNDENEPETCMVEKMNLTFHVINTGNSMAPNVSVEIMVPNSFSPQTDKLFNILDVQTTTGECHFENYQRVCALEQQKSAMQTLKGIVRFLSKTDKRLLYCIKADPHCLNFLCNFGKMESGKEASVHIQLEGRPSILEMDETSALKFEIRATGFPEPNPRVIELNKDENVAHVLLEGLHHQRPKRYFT
T1 sequence (P26010 20-723 limits assumed): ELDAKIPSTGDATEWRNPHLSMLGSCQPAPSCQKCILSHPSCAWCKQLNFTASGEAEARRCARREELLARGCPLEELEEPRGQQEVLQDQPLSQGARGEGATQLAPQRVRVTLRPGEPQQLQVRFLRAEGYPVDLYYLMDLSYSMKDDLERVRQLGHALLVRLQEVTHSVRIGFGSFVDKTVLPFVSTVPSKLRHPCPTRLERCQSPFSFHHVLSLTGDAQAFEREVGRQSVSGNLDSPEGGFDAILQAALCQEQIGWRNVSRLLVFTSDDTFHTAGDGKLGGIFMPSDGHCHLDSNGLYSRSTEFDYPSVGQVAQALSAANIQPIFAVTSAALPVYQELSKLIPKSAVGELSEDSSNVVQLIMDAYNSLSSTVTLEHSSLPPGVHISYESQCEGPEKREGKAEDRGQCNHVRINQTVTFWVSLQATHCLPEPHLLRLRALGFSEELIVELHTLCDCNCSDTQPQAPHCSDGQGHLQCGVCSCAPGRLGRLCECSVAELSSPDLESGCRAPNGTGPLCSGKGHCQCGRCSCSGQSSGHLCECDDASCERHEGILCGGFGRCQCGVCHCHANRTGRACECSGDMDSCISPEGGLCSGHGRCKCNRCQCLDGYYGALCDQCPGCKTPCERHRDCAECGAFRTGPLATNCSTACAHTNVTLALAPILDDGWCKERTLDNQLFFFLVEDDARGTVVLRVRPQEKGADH
Description: α4β7-MAdCAM Competition ELISA A nickel coated plate (Pierce #15442) was coated with rh integrin α4β[…] Systems #5397-A30) at 800 ng/well and incubated at room temperature with shaking for 1 hr. The solution was then removed by shaking and blocked with assay buffer (50 mM Tris-HCl pH7.6, 150 mM NaCl, 1 mM MnCl2 or MgCl2, 0.05% Tween-20 and 0.5% BSA) at 250 ul/well. The plate was then incubated at room temperature for 1 hr. Each well was washed 3 times with wash buffer (50 mM Tris-HCl pH7.6, 100 mM NaCl, 1 mM MnCl2 or MgCl2, 0.05% Tween-20). To each well was added 25 ul of a serial dilution (3-fold dilutions in assay buffer) of peptides starting at 20 μM. 25 ul of recombinant human MAdCAM-1 (R&D Systems #6056-MC) was then added to each well at a fixed concentration 20 nM. The final starting peptide concentration was 10 μM, and the final MAdCAM-1 concentration was 10 nM. The plates were then incubated at room temperature for 1 hr to reach binding equilibrium. The wells were then washed three times with wash buffer. 50 ul of mouse anti-human IgG1-HRP (Invitrogen #A10648) diluted in 1:2000 in assay buffer was then added to each well. The wells were incubated at room temperature for 45 min with shaking. The wells were then washed 3 times with wash buffer. 100 ul of TMB were then added to each well and closely observe during development time. The reaction was stopped with 2N H2SO4 and absorbance was read at 450 nm.

SMILES	half-life at 22 μM [1] [h]	pIC50 [2]	half-life [1] [h]
CC(C)C[C@@H]1NC(=O)[C@H]([C@@H](C)O)NC(=O)[C@H](CC(=O)O)NC(=O)[C@H](CO)NC(=O)[C@H](CCCNC(=N)N)N(C)C(=O)c2ccccc2CSC(C)(C)[C@@H](C(=O)N[C@H](Cc2ccccc2)C(=O)N[C@@H](Cc2ccc3ccccc3c2)C(=O)N[C@H](CCCCN)C(N)=O)NC1=O [compound 71] (HELM PEPTIDE1{[meR].S.D.T.L.[Pen].[dF].[O=C([C@H](Cc1ccc2ccccc2c1)N[*:1])[*:2]].[dK].[am]}|CHEM1{[O=C(c1ccccc1C[*:2])[*:1]]}$PEPTIDE1,CHEM1,1:R1-1:R1|PEPTIDE1,CHEM1,6:R3-1:R2$$$V2.0)	> 3	7.00 to 7.60	
CC(C)C[C@@H]1NC(=O)[C@H]([C@@H](C)O)NC(=O)[C@H](CC(=O)O)NC(=O)[C@H](CO)NC(=O)[C@H](CCCNC(=N)N)N(C)C(=O)c2ccccc2CSC(C)(C)[C@@H](C(=O)N[C@H](Cc2ccccc2)C(=O)N[C@@H](CCC(=O)O)C(=O)N[C@H](CCCCN)C(N)=O)NC1=O [compound 72] (HELM PEPTIDE1{[meR].S.D.T.L.[Pen].[dF].E.[dK].[am]}|CHEM1{[O=C(c1ccccc1C[*:2])[*:1]]}$PEPTIDE1,CHEM1,1:R1-1:R1|PEPTIDE1,CHEM1,6:R3-1:R2$$$V2.0)	> 3	> 7.60	
CC(C)C[C@@H]1NC(=O)[C@H]([C@@H](C)O)NC(=O)[C@H](CC(=O)O)NC(=O)[C@H](CO)NC(=O)[C@H](CCCNC(=N)N)N(C)C(=O)c2ccccc2CSC(C)(C)[C@@H](C(=O)N[C@@H](Cc2ccccc2)C(=O)N[C@@H](CCC(=O)O)CC(=O)N[C@H](CCCCN)C(N)=O)NC1=O [compound 73] (HELM PEPTIDE1{[meR].S.D.T.L.[Pen].F.[O=C(O)CC[C@@H](CC(=O)[*:2])N[*:1]].[dK].[am]}|CHEM1{[O=C(c1ccccc1C[*:2])[*:1]]}$PEPTIDE1,CHEM1,1:R1-1:R1|PEPTIDE1,CHEM1,6:R3-1:R2$$$V2.0)	> 3	> 7.60	
CC(C)C[C@@H]1NC(=O)[C@H]([C@@H](C)O)NC(=O)[C@H](CC(=O)O)NC(=O)[C@H](CO)NC(=O)[C@H](CCCNC(=N)N)N(C)C(=O)c2ccccc2CSC(C)(C)[C@@H](C(=O)N[C@@H](Cc2ccc(O)cc2)C(=O)N[C@@H](CCC(=O)O)CC(=O)N[C@H](CCCCN)C(N)=O)NC1=O [compound 74] (HELM PEPTIDE1{[meR].S.D.T.L.[Pen].Y.[O=C(O)CC[C@@H](CC(=O)[*:2])N[*:1]].[dK].[am]}|CHEM1{[O=C(c1ccccc1C[*:2])[*:1]]}$PEPTIDE1,CHEM1,1:R1-1:R1|PEPTIDE1,CHEM1,6:R3-1:R2$$$V2.0)	> 3	> 7.60	
CC(C)C[C@@H]1NC(=O)[C@H]([C@@H](C)O)NC(=O)[C@H](CC(=O)O)NC(=O)[C@H](CO)NC(=O)[C@H](CCCNC(=N)N)N(C)C(=O)c2ccccc2CSC(C)(C)[C@@H](C(=O)N[C@@H](Cc2ccc3ccccc3c2)C(=O)N[C@H](CCC(=O)O)C(=O)N[C@H](CCCCN)C(N)=O)NC1=O [compound 75] (HELM PEPTIDE1{[meR].S.D.T.L.[Pen].[O=C([C@H](Cc1ccc2ccccc2c1)N[*:1])[*:2]].[dE].[dK].[am]}|CHEM1{[O=C(c1ccccc1C[*:2])[*:1]]}$PEPTIDE1,CHEM1,1:R1-1:R1|PEPTIDE1,CHEM1,6:R3-1:R2$$$V2.0)	> 3	> 7.60	
CC(C)C[C@@H]1NC(=O)[C@H]([C@@H](C)O)NC(=O)[C@H](CC(=O)O)NC(=O)[C@H](CO)NC(=O)[C@H](CCCNC(=N)N)N(C)C(=O)c2ccccc2CSC(C)(C)[C@@H](C(=O)N[C@@H](Cc2ccc(C(F)(F)F)cc2)C(=O)N[C@@H](CCC(=O)O)C(=O)N[C@H](CCCCN)C(N)=O)NC1=O [compound 76] (HELM PEPTIDE1{[meR].S.D.T.L.[Pen].[O=C([C@H](Cc1ccc(C(F)(F)F)cc1)N[*:1])[*:2]].E.[dK].[am]}|CHEM1{[O=C(c1ccccc1C[*:2])[*:1]]}$PEPTIDE1,CHEM1,1:R1-1:R1|PEPTIDE1,CHEM1,6:R3-1:R2$$$V2.0)		> 7.60	> 3
CC(C)C[C@@H]1NC(=O)[C@H]([C@@H](C)O)NC(=O)[C@H](CC(=O)O)NC(=O)[C@H](CO)NC(=O)[C@H](CCCNC(=N)N)N(C)C(=O)c2ccccc2CSC(C)(C)[C@@H](C(=O)N[C@@H](Cc2cccc3ccccc23)C(=O)N[C@@H](CCC(=O)O)C(=O)N[C@H](CCCCN)C(N)=O)NC1=O [compound 77] (HELM PEPTIDE1{[meR].S.D.T.L.[Pen].[O=C([C@H](Cc1cccc2ccccc12)N[*:1])[*:2]].E.[dK].[am]}|CHEM1{[O=C(c1ccccc1C[*:2])[*:1]]}$PEPTIDE1,CHEM1,1:R1-1:R1|PEPTIDE1,CHEM1,6:R3-1:R2$$$V2.0)		> 7.60	1.47
CC(C)C[C@@H]1NC(=O)[C@H]([C@@H](C)O)NC(=O)[C@H](CC(=O)O)NC(=O)[C@H](CO)NC(=O)[C@H](CCCNC(=N)N)N(C)C(=O)c2ccccc2CSC(C)(C)[C@@H](C(=O)N[C@@H](Cc2ccc(O)cc2)C(=O)N[C@@H](CCC(=O)O)C(=O)N[C@H](CCCCN)C(N)=O)NC1=O [compound 78] (HELM PEPTIDE1{[meR].S.D.T.L.[Pen].Y.E.[dK].[am]}|CHEM1{[O=C(c1ccccc1C[*:2])[*:1]]}$PEPTIDE1,CHEM1,1:R1-1:R1|PEPTIDE1,CHEM1,6:R3-1:R2$$$V2.0)	1.3	> 7.60	
